Results taken from patent publication US20240350434A1, “METHODS FOR TREATING MAJOR DEPRESSIVE DISORDER AND TREATMENT-RESISTANT DEPRESSION” (iX Biopharma Limited, priority 2020, published 2024).
Values joined by “and” are separate entries in the source; they are usually repeats but may differ in a detail not shown here. Equal entries are not always repeated.

Legend:
[1] = system: treatment-resistant major depressed patients; settings: cited from earlier work
[2] = Open label two way randomized crossover pharmacokinetic / absolute bioavailability study, SL ketamine wafer 25 mg vs 10 mg i.v. infusion; settings: for clearance: CL, clearance following i.v. administration; for bioavailability: other: sublingual, F; for half-life: median (min-max in text) of eight healthy volunteers; for extrapolated portion of the AUC(0,∞): min-max
Procedure: The study was of open label two way randomized, crossover design in eight healthy male volunteers who all gave written informed consent. Each participant received either a single 10 mg i.v. dose as a constant rate 30 min infusion or a 25 mg SL dose of ketamine in two treatment periods with a 7 day washout. Both the SL and i.v. doses, and the duration of the i.v. infusion were chosen to ensure adequate characterization of the plasma concentration-time profiles and good quality estimates of pharmacokinetic (PK) variables for both routes of administration. […] The sequence of the two formulations was according to a computer-generated randomization code.
The SL wafer formulation was a freeze dried solid dispersion of racemic ketamine hydrochloride in a porous matrix using lactose as a filling agent. Prior to administration of the wafer the sublingual space was rinsed with 3 ml of water after which the wafer was placed sublingually by a member of the study staff. The participants were instructed to avoid chewing or swallowing of the wafer within 5 min of its placement. For i.v. administration, commercially available ketamine (Ketalar®) was diluted to 30 ml in saline and administered over 30 min using a volumetrically controlled syringe driver. The infusion line was primed prior to start of the infusion.
Pharmacokinetic blood sampling and clinical assessment of local tolerability and safety were carried out for 24 h following both dosing occasions.
Key inclusion criteria were healthy adult males aged 18-65 years with a BMI 19-30 kg m^−2 in good general health including mental health as assessed by the Symptom Checklist-90-R (SCL-90-R®), a screening instrument which evaluates a broad range of psychological problems and symptoms of psychopathology. Pharmacokinetic blood samples (5 ml), were taken following both i.v. and SL administration at predose 5, 10, 15, 30, 35 and 45 min, and at 1.0, 1.5, 2.0, 2.5, 3.0, 4.0, 6.0, 8.0,12 and 24 h post-dose.
Whole blood was drawn into prechilled lithium heparin tubes and remained on ice post-sample collection until centrifugation. Samples were centrifuged at 1800 g for 10 min in a refrigerated centrifuge at 4° C. Plasma was decanted and frozen at-80° C.
Safety laboratory testing (biochemistry, haematology and urinalysis) was performed predose and at hour 24 post-dose administration in each period. Quantification of the plasma concentrations of racemic ketamine was performed using a validated HPLC method with u.v. detection, a lower limit of quantification (LLOQ) of 2 ng ml^−1 and <20% bias and imprecision.
Standard non-compartmental methods using the PK Solver plug-in for Microsoft
Excel were used to derive pharmacokinetic variables, except for Cmax, Tmax and Tlast, which were taken as observations from the plasma concentration-time profile of each participant. Actual times were used when reporting Tmax. The terminal rate constant (λz) was estimated by log-linear regression, of the slope of the natural log plasma concentration vs. time curve where λz=−1×slope. The linear regression in the terminal phase used the last three to six data points. The terminal t1/2 was calculated as t1/2=ln(2)/λz.
The area under the plasma concentration time curve from time zero to the last quantifiable concentration (AUC(0,tlast)) was obtained using the linear trapezoidal method and extrapolated to infinity to obtain the total area, AUC(0,∞), with Clast/λz, where Clast is the last quantifiable plasma concentration.

[3] = Clinical assessment of local tolerability and safety in the crossover study; assay type: in vivo, human
Procedure: To assess the local tolerability profile of the SL formulation, modified Likert scales (0-10) were recorded at 5, 10, 15, 30 and 45 min and 1 h post-dose administration at various time points for both the SL and i.v. formulation: • Mucosal irritation • Burning sensation • Bitterness • Nausea • Residual grittiness in the mouth
Safety assessments included scheduled adverse event probes, spontaneous adverse event (AE) reporting, physical examination, routine laboratory investigations, ECGs and vital sign evaluation.
Vital signs (including systolic and diastolic blood pres-sure, pulse, respiratory rate and body temperature) were performed predose and at hours 0.5, 1, 2, 4, 6, 8, 12 and 24 h post-dose. Pulse oximetry was recorded predose and continuously for the first 3 h post-dose administration

[4] = sublingually administered ketamine; cited from earlier work
[5] = cited from earlier work
[6] = system: mouse tests of antidepressant efficacy; settings: up to a 30-fold range of doses, multiple mouse tests; cited from earlier work
NMDA receptors = settings: cited from earlier work
[7] = i.v. infusion, treatment-resistant major depressed patients
[8] = individual subjects, 10 mg as 30 min i.v. infusion
[9] = individual subjects, 25 mg sublingually as a wafer
[10] = both routes (10 mg i.v., 25 mg SL)

SMILES: CNC1(c2ccccc2Cl)CCCCC1=O (racemic) [RS ketamine, ketamine]
- treatment of non-melancholic or anxious depression patients as measured by MADRS ([1]; 6 repeated IV doses 0.5 mg/kg, Wang et al): effectively treated
- patients who maintained response for at least 7 days [1, 7]: 35%
- time to manifestation of antidepressant effects post-infusion [1, 7]: ≤ 2 h
- anti-depressive effects as measured by MADRS ([1]; single IV dose 0.5 mg/kg, Zarate et al): caused anti-depressive effects
- efficacy for the treatment of depression, comparison with esketamine ([1]; single dose IV 0.5 mg/kg, Bahji et al meta-analysis): more efficacious than intransal esketamine
- Cmax, peak plasma concentration (i.v.) ([2]; Gmean of eight healthy volunteers, 10 mg as 30 min i.v. infusion): 128.1 ng/ml^−1
- Cmax, peak plasma concentration (SL) ([2]; Gmean of eight healthy volunteers, 25 mg sublingually as a wafer): 71.1 ng/ml^−1
- first quantifiable ketamine plasma concentrations observed at ([2]; all participants, both administration routes (i.v. and SL), first post-dose sample): 5 min
- AUC(0-inf) ([2]; human, plasma, 25 mg, AUC(0,∞) (SL), individual subjects, 25 mg sublingually as a wafer): 0.204 µg·h/mL
- AUC(0-inf) ([2]; human, plasma, iv, 10 mg, AUC(0,∞) (i.v.), individual subjects, 10 mg as 30 min i.v. infusion): 0.27 µg·h/mL
- clearance ([2]; human, plasma, iv, 10 mg, individual subjects, 10 mg as 30 min i.v. infusion): 997 mL/min
- bioavailability ([2]; human, plasma, 25 mg, individual subjects, 25 mg SL wafer vs 10 mg i.v., dose adjusted AUC(0,∞)): 30%
- AUC(0,∞) (i.v.) [2, 8]: 0.2892 µg·h/mL and 0.2994 µg·h/mL and 0.261 µg·h/mL and 0.1672 µg·h/mL and 0.2827 µg·h/mL and 0.2432 µg·h/mL and 0.2548 µg·h/mL
- CL, clearance following i.v. administration [2, 8]: 37.0 L/h and 34.6 L/h and 33.4 L/h and 36.3 L/h and 35.4 L/h and 41.1 L/h and 39.3 L/h
- Vz, apparent volume of distribution following i.v. administration [2, 8]: 253 L and 300 L and 164 L and 385 L and 375 L and 126 L and 158 L and 283 L
- Cmax, peak plasma concentration (i.v.) ([2]; individual subjects, 10 mg as 30 min i.v. infusion, healthy volunteers): 124.2 ng/ml^−1 and 120.4 ng/ml^−1 and 101.9 ng/ml^−1 and 83.2 ng/ml^−1 and 81.1 ng/ml^−1 and 226.7 ng/ml^−1 and 166.3 ng/ml^−1 and 160.3 ng/ml^−1
- F, bioavailability ([2]; individual subjects, 25 mg SL wafer vs 10 mg i.v., dose adjusted AUC(0,∞)): 23% and 38% and 28% and 27%
- AUC(0,∞) (SL) [2, 9]: 0.1719 µg·h/mL and 0.2113 µg·h/mL and 0.1661 µg·h/mL and 0.1516 µg·h/mL and 0.2029 µg·h/mL and 0.1625 µg·h/mL and 0.1343 µg·h/mL
- t1/2, terminal half-life (SL) [2, 9]: 5.5 h and 3.5 h and 2.3 h and 4.6 h and 5.1 h and 2.9 h and 1.8 h and 3.2 h
- Cmax, peak plasma concentration (SL) ([2]; individual subjects, 25 mg sublingually as a wafer, healthy volunteers): 60.2 ng/ml^−1 and 50.0 ng/ml^−1 and 75.1 ng/ml^−1 and 51.8 ng/ml^−1 and 61.2 ng/ml^−1 and 88.8 ng/ml^−1 and 128.3 ng/ml^−1 and 76.7 ng/ml^−1
- AUC(0-inf) ([2]; male, human, plasma, 25 mg, AUC(0,∞) (SL), Gmean of eight healthy volunteers, 25 mg sublingually as a wafer): 0.185 µg·h/mL
- half-life ([2]; male, human, plasma, 25 mg, t1/2, terminal half-life (SL), 25 mg sublingually as a wafer): 3.4 h
- AUC(0-inf) ([2]; male, human, plasma, iv, 10 mg, AUC(0,∞) (i.v.), Gmean of eight healthy volunteers, 10 mg as 30 min i.v. infusion): 0.255 µg·h/mL
- clearance ([2]; male, human, plasma, iv, 10 mg, Gmean of eight healthy volunteers, 10 mg as 30 min i.v. infusion): 653 mL/min
- Vd ([2]; male, human, plasma, iv, 10 mg, Vz, apparent volume of distribution following i.v. administration, Gmean of eight healthy volunteers, 10 mg as 30 min i.v. infusion): 237 L
- half-life ([2]; male, human, plasma, iv, 10 mg, t1/2, terminal half-life (i.v.), 10 mg as 30 min i.v. infusion): 4.5 h
- bioavailability ([2]; male, human, plasma, 25 mg, median (lower, upper 90% CI limit in text) of eight healthy volunteers, 25 mg SL wafer vs 10 mg i.v.): 29%
- extrapolated portion of the AUC(0,∞) ([2]; SL dosing): 2-9%
- extrapolated portion of the AUC(0,∞) ([2]; i.v. dosing): 3-7%
- onset of adverse events ([3]; 10 mg i.v.): 6 to 22 min
- onset of adverse events ([3]; 25 mg SL dosing): 5 to 18 min
- adverse events terrible taste in mouth, blurred vision, decreased sensation in arm and dizziness, number of each ([3]; SL): one
- duration of adverse events [3, 10]: less than 1 h
- serious adverse events [3, 10]: no serious adverse events
- severity of adverse events [3, 10]: mild
- local and systemic tolerability ([3]; both routes of administration): very good
- adverse events thought to be related to treatment, number reported ([3]; both routes, eight volunteers): Nineteen
- adverse events body feels heavy, dry mouth and visual disturbance, number of each ([3]; i.v.): one
- bioavailability values reported in the literature [4]: 24-32.2%
- duration of action as an anaesthetic ([5]; depending on dose): approximately 30 minutes
- terminal half-life ([5]; racemic drug): approximately 3 hours

SMILES: CN[C@@]1(c2ccccc2Cl)CCCCC1=O [(R)-ketamine]
- antidepressant efficacy compared with (S)-ketamine [6]: superior to (S)-ketamine

SMILES: CN[C@]1(c2ccccc2Cl)CCCCC1=O [S enantiomer, (S)-ketamine]
- potency relative to R enantiomer (times more potent) (NMDA receptors; in humans in vivo): approximately 3 times

SMILES: NC1(c2ccccc2Cl)CCCCC1=O (centres unmarked) [norketamine]
- potency as NMDA antagonists relative to parent molecules (times less) (NMDA receptors): 5-8 times
